{
  "source": "patent US12157730B2",
  "about": "“Heteroaryl derivative, method for producing same, and pharmaceutical composition comprising same as effective component” (VORONOI INC., priority 2019, dated 2024)",
  "data": [
    {"molecular_target": "T1, Ba/F3 cell EGFR Exon20 ins NPH (Homo sapiens, UniProt P00533, INS773NPH)", "T1 construct": "expressed in transfected cells; host or cells: Ba/F3", "assay": "Ba/F3 cell proliferation suppression, EGFR Exon20 ins NPH", "type": "cell-based", "details": "GI50 class; Ba/F3 cell line with NPH inserted at Exon20 of EGFR; 72 hours", "summary_of_the_method": "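Cells (3000–5000/well) plated 24 h before compound, 12-point 3-fold dilutions at 0.3 nM to 50 um final; Ba/F3 lines grown with 5 ng/ml IL-3. Viability by CellTiter-Glo luminescence after 72 h, growth ratio vs control, GI50 from curves; triplicate.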", "values": [
      {"smiles": "C=CC(=O)Nc1cc(Nc2cc(N3OCC[C@@H]3c3cccc(C#N)c3)ncn2)c(OC)cc1N1CCC(N2C[C@H]3C[C@@H]2CO3)CC1", "note": "[compound 389, N-(2-(4-((1R,4R)-2-oxa-5-azabicyclo[2.2.1]heptane-5-yl)piperidine-1-yl)-5-((6-((R)-3-(3-cyanophenyl)isoxazolidine-2-yl)pyrimidine-4-yl)amino)-4-methoxyphenyl) acrylamide]", "Ba/F3 (NPH) Activity": "A (GI50 < 50 nM)"},
      {"smiles": "C=CC(=O)Nc1cc(Nc2cc(N3OCC[C@@H]3c3cccc(C)c3F)ncn2)c(OC)cc1N1CCC(N2CCN(C(C)C)CC2)CC1", "note": "[compound 911, N-(5-((6-((R)-3-(2-fluoro-3-methylphenyl)isoxazolidine-2-yl)pyrimidine-4-yl)amino)-2-(4-(4-isopropylpiperazine-1-yl)piperidine-1-yl)-4-methoxyphenyl) acrylamide]", "Ba/F3 (NPH) Activity": "A (GI50 < 50 nM)"},
      {"smiles": "C=CC(=O)Nc1cc(Nc2cc(N3OCC[C@@H]3c3ccc(Cl)cc3)ncn2)c(OC)cc1N1CCC(N2CCN(C(C)=O)CC2)CC1", "note": "[compound 806, N-(2-(4-(4-acetylpiperazine-1-yl)piperidine-1-yl)-5-((6-((R)-3-(4-chlorophenyl)isoxazolidine-2-yl)pyrimidine-4-yl)amino)-4-methoxyphenyl) acrylamide]", "Ba/F3 (NPH) Activity": "A (GI50 < 50 nM)"},
      {"smiles": "C=CC(=O)Nc1cc(Nc2cc(N3OCC[C@@H]3c3ccc(Cl)c(Cl)c3)ncn2)c(OC)cc1N(C)CCOC", "note": "[compound 679, N-(5-((6-((R)-3-(3,4-dichlorophenyl)isoxazolidine-2-yl)pyrimidine-4-yl)amino)-4-methoxy-2-((2-methoxyethyl)(methyl)amino)phenyl) acrylamide]", "Ba/F3 (NPH) Activity": "B (50 nM ≤ GI50 < 500 nM)"},
      {"smiles": "C=CC(=O)Nc1cc(Nc2cc(N3OCC[C@@H]3c3cc(F)cc(Cl)c3)ncn2)c(OC)cc1N1CC(N2CCN(C3CC3)CC2)C1", "note": "[compound 587, N-(5-((6-((R)-3-(3-chloro-5-fluorophenyl)isoxazolidine-2-yl)pyrimidine-4-yl)amino)-2-(3-(4-cyclopropylpiperazine-1-yl)azetidine-1-yl)-4-methoxyphenyl) acrylamide]", "Ba/F3 (NPH) Activity": "B (50 nM ≤ GI50 < 500 nM)"},
      {"smiles": "C=CC(=O)Nc1cc(Nc2cc(N3OCC[C@@H]3c3ccc(F)cc3F)ncn2)c(OC)cc1N1C[C@@H]2C[C@H]1CO2", "note": "[compound 324, N-(2-((1S,4S)-2-oxa-5-azabicyclo[2.2.1]heptane-5-yl)-5-((6-((R)-3-(2,4-difluorophenyl)isoxazolidine-2-yl)pyrimidine-4-yl)amino)-4-methoxyphenyl) acrylamide]", "Ba/F3 (NPH) Activity": "A (GI50 < 50 nM)"},
      {"smiles": "C=CC(=O)Nc1cc(Nc2cc(N3OCC[C@@H]3c3ccc(F)c(Cl)c3)ncn2)c(OC)cc1N1CCC(N2CCC(N(C)C)CC2)CC1", "note": "[compound 768, N-(5-((6-((R)-3-(3-chloro-4-fluorophenyl)isoxazolidine-2-yl)pyrimidine-4-yl)amino)-2-(4-(dimethylamino)-[1,4'-bipiperidine]-1'-yl)-4-methoxyphenyl) acrylamide]", "Ba/F3 (NPH) Activity": "A (GI50 < 50 nM)"},
      {"smiles": "C=CC(=O)Nc1cc(Nc2cc(N3OCC[C@@H]3c3cc(F)cc(F)c3)ncn2)c(OC)cc1N1C[C@H]2CCN(C)[C@H]2C1", "note": "[compound 890, N-(5-((6-((R)-3-(3,5-difluorophenyl)isoxazolidine-2-yl)pyrimidine-4-yl)amino)-4-methoxy-2-((3aR,6aR)-1-methylhexahydropyrrolo [3,4-b]pyrrole-5(1H)-yl)phenyl) acrylamide]", "Ba/F3 (NPH) Activity": "A (GI50 < 50 nM)"},
      {"smiles": "C=CC(=O)Nc1cc(Nc2cc(N3OCC[C@@H]3c3cc(F)cc(F)c3)ncn2)c(OC)cc1N1CCC(N2C[C@@H]3CCN(C)[C@@H]3C2)CC1", "note": "[compound 446, N-(5-((6-((R)-3-(3,5-difluorophenyl)isoxazolidine-2-yl)pyrimidine-4-yl)amino)-4-methoxy-2-(4-((3aS,6aS)-1-methylhexahydropyrrolo [3,4-b]pyrrole-5(1H)-yl)piperidine-1-yl)phenyl)acrylamide]", "Ba/F3 (NPH) Activity": "A (GI50 < 50 nM)"},
      {"smiles": "C=CC(=O)Nc1cc(Nc2cc(N3OCC[C@@H]3c3cc(F)cc(F)c3)ncn2)c(OC)cc1N1CCOCC1", "note": "[compound 823, N-(5-((6-((R)-3-(3,5-difluorophenyl)isoxazolidine-2-yl)pyrimidine-4-yl)amino)-4-methoxy-2-morpholinophenyl) acrylamide]", "Ba/F3 (NPH) Activity": "A (GI50 < 50 nM)"},
      {"smiles": "C=CC(=O)Nc1cc(Nc2cc(N3OCC[C@@H]3c3cc(F)cc(F)c3)ncn2)c(OCC)cc1N1CCC(N2CCN(C3CC3)CC2)CC1", "note": "[Example 116, N-(2-(4-(4-cyclopropylpiperazine-1-yl)piperidine-1-yl)-5-((6-((R)-3-(3,5-difluorophenyl)isoxazolidine-2-yl)pyrimidine-4-yl)amino)-4-ethoxyphenyl) acrylamide]", "Ba/F3 (NPH) Activity": "C (500 nM ≤ GI50 < 5000 nM)"},
      {"smiles": "C=CC(=O)Nc1cc(Nc2cc(N3OCC[C@@H]3c3cc(F)ccc3F)ncn2)c(OC)cc1N1CCC(N2C[C@H]3C[C@@H]2CO3)CC1", "note": "[Example 259, N-(2-(4-((1R,4R)-2-oxa-5-azabicyclo[2.2.1]heptane-5-yl)piperidine-1-yl)-5-((6-((R)-3-(2,5-difluorophenyl)isoxazolidine-2-yl)pyrimidine-4-yl)amino)-4-methoxyphenyl) acrylamide]", "Ba/F3 (NPH) Activity": "A (GI50 < 50 nM)"},
      {"smiles": "C=CC(=O)Nc1cc(Nc2cc(N3OCC[C@@H]3c3cc(F)cc(F)c3)ncn2)c(OC)cc1N1C[C@@H]2CCN(C)[C@@H]2C1", "note": "[compound 891, N-(5-((6-((R)-3-(3,5-difluorophenyl)isoxazolidine-2-yl)pyrimidine-4-yl)amino)-4-methoxy-2-((3aS,6aS)-1-methylhexahydropyrrolo [3,4-b]pyrrole-5(1H)-yl)phenyl) acrylamide]", "Ba/F3 (NPH) Activity": "A (GI50 < 50 nM)"},
      {"smiles": "C=CC(=O)Nc1cc(Nc2cc(N3OCC[C@@H]3Cc3cccc(Cl)c3F)ncn2)c(OC)cc1N1CCC(N2CCN(C3CC3)CC2)CC1", "note": "[compound 1020, N-(5-((6-((S)-3-(3-chloro-2-fluorobenzyl)isoxazolidine-2-yl)pyrimidine-4-yl)amino)-2-(4-(4-cyclopropylpiperazine-1-yl)piperidine-1-yl)-4-methoxyphenyl) acrylamide]", "Ba/F3 (NPH) Activity": "A (GI50 < 50 nM)"},
      {"smiles": "C=CC(=O)Nc1cc(Nc2cc(N3OCC[C@@H]3c3cc(F)ccc3F)ncn2)c(OC)cc1N1CCC(N2C[C@H](C)N(C3CC3)C[C@@H]2C)CC1", "note": "[Example 171, N-(2-(4-((2S,5S)-4-cyclopropyl-2,5-dimethylpiperazine-1-yl)piperidine-1-yl)-5-((6-((R)-3-(2,5-difluorophenyl)isoxazolidine-2-yl)pyrimidine-4-yl)amino)-4-methoxyphenyl) acrylamide]", "Ba/F3 (NPH) Activity": "A (GI50 < 50 nM)"},
      {"smiles": "C=CC(=O)Nc1cc(Nc2cc(N3OCC[C@@H]3c3cccc(OC)c3)ncn2)c(OC)cc1N1CCN(C2COC2)CC1", "note": "[compound 730, N-(4-methoxy-5-((6-((R)-3-(3-methoxyphenyl)isoxazolidine-2-yl)pyrimidine-4-yl)amino)-2-(4-(oxetane-3-yl)piperazine-1-yl)phenyl) acrylamide]", "Ba/F3 (NPH) Activity": "B (50 nM ≤ GI50 < 500 nM)"},
      {"smiles": "C=CC(=O)Nc1cc(Nc2cc(N3OCC[C@@H]3c3ccc(Cl)c(F)c3)ncn2)c(OC)cc1N1CCOCC1", "note": "[compound 854, N-(5-((6-((R)-3-(4-chloro-3-fluorophenyl)isoxazolidine-2-yl)pyrimidine-4-yl)amino)-4-methoxy-2-morpholinophenyl) acrylamide]", "Ba/F3 (NPH) Activity": "A (GI50 < 50 nM)"},
      {"smiles": "C=CC(=O)Nc1cc(Nc2cc(N3OCC[C@@H]3c3ccc(Cl)c(Cl)c3)ncn2)c(OC)cc1N1CCN(C2CCN(C)CC2)CC1", "note": "[compound 685, N-(5-((6-((R)-3-(3,4-dichlorophenyl)isoxazolidine-2-yl)pyrimidine-4-yl)amino)-4-methoxy-2-(4-(1-methylpiperidine-4-yl)piperazine-1-yl)phenyl) acrylamide]", "Ba/F3 (NPH) Activity": "A (GI50 < 50 nM)"},
      {"smiles": "C=CC(=O)Nc1cc(Nc2cc(N3OCC[C@@H]3c3ccc(Cl)c(Cl)c3F)ncn2)c(OC)cc1N1CC[C@H](N2CCOCC2)C1", "note": "[Example 295, N-(5-((6-((R)-3-(3,4-dichloro-2-fluorophenyl)isoxazolidine-2-yl)pyrimidine-4-yl)amino)-4-methoxy-2-((S)-3-morpholinopyrolidine-1-yl)phenyl)acrylamide]", "Ba/F3 (NPH) Activity": "C (500 nM ≤ GI50 < 5000 nM)"},
      {"smiles": "C=CC(=O)Nc1cc(Nc2cc(N3OCC[C@@H]3c3ccc(F)c(Cl)c3)ncn2)c(OC)cc1N1CCC(N2CC[C@@H](N(C)C)C2)CC1", "note": "[compound 769, N-(5-((6-((R)-3-(3-chloro-4-fluorophenyl)isoxazolidine-2-yl)pyrimidine-4-yl)amino)-2-(4-((R)-3-(dimethylamino)pyrolidine-1-yl)piperidine-1-yl)-4-methoxyphenyl) acrylamide]", "Ba/F3 (NPH) Activity": "A (GI50 < 50 nM)"},
      {"smiles": "C=CC(=O)Nc1cc(Nc2cc(N3OCC[C@@H]3c3ccc(Cl)c(Cl)c3F)ncn2)c(OC)cc1N1CCC(N2CC[C@H](N(C)C)C2)CC1", "note": "[compound 772, N-(5-((6-((R)-3-(3,4-dichloro-2-fluorophenyl)isoxazolidine-2-yl)pyrimidine-4-yl)amino)-2-(4-((S)-3-(dimethylamino)pyrolidine-1-yl)piperidine-1-yl)-4-methoxyphenyl) acrylamide]", "Ba/F3 (NPH) Activity": "B (50 nM ≤ GI50 < 500 nM)"},
      {"smiles": "C=CC(=O)Nc1cc(Nc2cc(N3OCC[C@@H]3c3ccc(F)c(Cl)c3)ncn2)c(OC)cc1N1CCC(N2CC[C@H](N(C)C)C2)CC1", "note": "[compound 764, N-(5-((6-((R)-3-(3-chloro-4-fluorophenyl)isoxazolidine-2-yl)pyrimidine-4-yl)amino)-2-(4-((S)-3-(dimethylamino)pyrolidine-1-yl)piperidine-1-yl)-4-methoxyphenyl) acrylamide]", "Ba/F3 (NPH) Activity": "A (GI50 < 50 nM)"}
    ]}
  ]
}
